Entries after “also recorded” stand apart in the source; their conditions may differ.
Key:
NALM6-luc2 = experiment: Combination of tolinapant and CD19 CAR-T against a low volume of tumor (NALM6-luc2, NOG mice); assay type: in vivo, mouse
Text: For the measurement, IVIS (trademark) Lumina X5 was used.

A375 = experiment: Combination of tolinapant and NY-ESO-1 TCR-T in A375 subcutaneous tumor-bearing NOG mice; assay type: in vivo, mouse
Protocol: Each mouse was identified with a number attached to the tail of the mouse.
The evaluation period was set to 2 weeks, and grouping and pharmacological evaluation were performed based on the results of tumor diameter measurement using a caliper. The tumor diameter and body weight were measured twice a week.
Using trypsin-EDTA-PBS(−), the cultured cells were detached and collected and then centrifuged (4° C., 1200 rpm, 5 min). After removing the supernatant, D-PBS (−) was added and the cells were resuspended and washed by centrifugation in the same manner as above. This washing operation was further repeated twice. After a portion of the cell suspension was taken and the number of viable cells was counted using AOPI Staining Solution, a cell suspension at 1×10^7 cells/mL was prepared using D-PBS(−), After the preparation, the cell suspension was stored in ice until transplantation. […]
On the eighth day after the transplantation, the long diameter and the short diameter were measured and the tumor volume was calculated. […]
The tumor diameter was determined by measuring the short diameter and the long diameter using an electronic caliper (produced by Mitutoyo Corporation). After tumor cell transplantation, the tumor diameter was measured twice a week.
Based on the measurement results of the tumor diameter, the tumor volume (TV: tumor volume) was calculated using the following formula: […]

CD19-negative NALM6 = experiment: Cell death induction by tolinapant in presence of cytokine produced from CAR-T; assay type: cell-based; details: cytokine produced from CAR-T present with tolinapant; antigen-negative as well as antigen-expressing tumor cells
Text: It has also been confirmed that when CAR-T used in this Example was reacted with a target CAR antigen-expressing tumor cell (e.g., CD19-positive NALM6) in vitro, cytokine (e.g., TNF-α) was produced. […] This non-contact apoptosis induction to tumor cells is expected to exert an antitumor effect on tumor cells in which antigen escape has occurred or tumor cells metastasized to a site to which modified immune cells cannot make access.

C[C@@H]1CN(CC(=O)N2CC(C)(C)c3nc(CO)c(Cc4ccc(F)cc4)cc32)[C@@H](CN2CCOC[C@H]2C)CN1 [Tolinapant, 1-[6-[(4-fluorophenyl)methyl]-5-(hydroxymethyl)-3,3-dimethyl-2H-pyrrolo[3,2-b]pyridin-1-yl]-2-[(2R,5R)-5-methyl-2-[[(3R)-3-methylmorpholin-4-yl]methyl]piperazin-1-yl]ethanone]
reduction in the number of CAR-T cells achieved by the combination (NALM6-luc2; 2×10^4 cells + tolinapant versus 1×10^6 cells alone, suggested possibility): at least 50 fold | combination effect of tolinapant and CD19 CAR-T on a low volume of tumor (NALM6-luc2; tolinapant 16 mg/kg qd po + CD19 CAR-T): a strong combination effect was observed | effect of tolinapant + 1×10^5 cells CD19 CAR-T compared with 1×10^6 cells CD19 CAR-T alone (NALM6-luc2; tolinapant 16 mg/kg qd po + CD19 CAR-T 1×10^5 cells/body iv): an effect equivalent to the effect achieved by using 1×10^6 cells of CD19 CAR-T alone was observed on day 17 | effect of tolinapant + 2×10^4 cells CD19 CAR-T compared with 1×10^6 cells CD19 CAR-T alone (NALM6-luc2; tolinapant 16 mg/kg qd po + CD19 CAR-T 2×10^4 cells/body iv): an effect equivalent to the effect achieved by using 1×10^6 cells of CD19 CAR-T alone was observed on day 21 | tumor volume on day 15, combination versus either agent alone (A375; tolinapant 16 mg/kg po + NY-ESO-1 TCR-T 3×10^6 cells/body iv, day 15): a significant difference was observed | tumor regression with NY-ESO-1 TCR-T and tolinapant both administered (A375; tolinapant 16 mg/kg po + NY-ESO-1 TCR-T iv, compared with NY-ESO-1 TCR-T alone): a higher degree of tumor regression was confirmed; also recorded: synergistic effects based on the combined use were shown; also recorded: significant, highly reproducible results | induction of cell death (e.g., apoptosis) (CD19-negative NALM6): cell death (e.g., apoptosis) is induced to antigen-negative tumor cells (e.g., CD19-negative NALM6) as well as antigen-expressing cells

— patent US20250127813A1, “COMBINATION DRUG” (OTSUKA PHARMACEUTICAL CO., LTD., priority 2021, published 2025)
